In patent publication US20110224240A1 (Myrexis, Inc., priority 2010, published 2011):
pIC50: −log10 of the molar value.

Tests used:
Experiment in all cases: Multidrug resistant cell assay, cytotoxicity
[1] = tested on: P388; type: cell-based, murine; conditions: Mus musculus; P388; 72 hours; read-out: Various MDR Cell Line Cytotoxicity IC50
[2] = tested on: P388/ADR (MDR-1); type: cell-based; conditions: 72 hours, read-out: Various MDR Cell Line Cytotoxicity IC50
Procedure: P388/ADR cell lines were obtained from American Type Culture Collection (Manassas, Va.) and maintained in RPMI-1640 media supplemented with 10% FCS, 10 units/ml penicillin and streptomycin, 2 mM Glutamax and 1 mM sodium pyruvate (Invitrogen Corporation, Carlsbad, Calif.). […] Cells were allowed to adhere to the plate overnight and then incubated with the compound at final concentrations ranging from 0.13 nM to 10 uM for 72 hours. Cell viability was then assessed using the ATP-lite reagent (Perkin Elmer, Foster City, Calif.). Plates were read on a Wallac Topcount luminescence reader (Perkin Elmer, Foster City, Calif.) and the results graphed in Prism software (Graphpad Software, Inc., San Diego, Calif.). Non-linear regression with variable slope analysis was performed to obtain IC50 concentration values.

[3] = tested on: MCF-7; type: cell-based; conditions: Homo sapiens, MCF7, 72 h, read-out: Various MDR Cell Line Cytotoxicity IC50
[4] = tested on: NCI/ADR-Res (MDR-1); conditions: 72 h, read-out: Various MDR Cell Line Cytotoxicity IC50
[5] = tested on: MCF-7/MX (BCRP-1); type: cell-based; conditions: MCF7/MX, 72 h, read-out: Various MDR Cell Line Cytotoxicity IC50
[6] = tested on: MCF-7/VP (MRP-1); conditions: Homo sapiens, MCF7-VP, 72 h, read-out: Various MDR Cell Line Cytotoxicity IC50

| SMILES | pIC50 [1] | pIC50 [2] | pIC50 [3] | pIC50 [4] | pIC50 [5] | pIC50 [6] |
| --- | --- | --- | --- | --- | --- | --- |
| CC(=O)O[C@@]12CO[C@@H]1C[C@H](O)[C@@]1(C)C(=O)[C@H](O)C3=C(C)[C@@H](OC(=O)[C@H](O)[C@@H](NC(=O)OC(C)(C)C)c4ccccc4)C[C@@](O)([C@@H](OC(=O)c4ccccc4)[C@H]21)C3(C)C [Docetaxel, docetaxel] | 8.48 | 6.70 | 7.89 | 6.05 | – | – |
| COc1cccc2c1C(=O)c1c(O)c3c(c(O)c1C2=O)C[C@@](O)(C(=O)CO)C[C@@H]3O[C@H]1C[C@H](N)[C@@H](O)[C@H](C)O1 [Epirubicin, epirubicin, reference compound] | – | – | 6.80 | – | 6.40 | 5.68 |
| CC[C@]1(O)C[C@@H]2CN(CCc3c([nH]c4ccccc34)[C@@](C(=O)OC)(c3cc4c(cc3OC)N(C)[C@H]3[C@@](O)(C(=O)OC)[C@H](OC(C)=O)[C@]5(CC)C=CCN6CC[C@]43[C@@H]65)C2)C1 [Vinblastine, vinblastine] | 9.30 | 8.08 | 8.85 | 7.00 | – | – |
